Columns and labels:
[1] = system: cells; assay: Preliminary cytotoxicity tests; settings: preliminary tests by the inventors
[2] = Stability of coloring agents in decellularization (Decell) solution; format: physicochemical; settings: 0.5 mL of 1% w/v color solution in 50 mL Decell solution
Experimental: A first set of experiments were conducted to determine the stability of various coloring agents within a decellularization solution (termed herein as “Decell solution”) used in the processing/manufacturing of Kerecis™ fish-skin-derived cellular scaffold products, which is made from the minimally processed skin of wild-caught Atlantic cod, as described in U.S. Pat. No. 8,613,957.
The Decell solution was prepared in accordance with EBL M222. 50 mL of the Decell solution was aliquoted into each of 7 separate plastic tubes securable with a respective lid. A first tube included only the Decell solution, acting as a control. A 0.5 mL aliquot of each of the 6 prepared color solutions was separately added to a corresponding tube containing 50 mL of Decell solution. Any reaction or visible change of the mixture was monitored over time.
The solutions in respective tubes with the respective coloring agents were monitored and documented by photographs at the start of the experiment, after 30 minutes, and after 24 hours of incubation.

Row | SMILES | cytotoxicity [1] | color of the Decell solution ([2]; after 24 hours) | fading of color in Decell solution ([2]; first 20 minutes)
1 | CN(C)c1ccc(C(=C2C=CC(=[N+](C)C)C=C2)c2ccc(N(C)C)cc2)cc1 [GV, gentian violet] | did not cause any cytotoxicity concern |  | 
2 | CN(C)c1ccc2nc3ccc(N(C)C)cc3[s+]c2c1.[Cl-] [Methylene Blue, methylene blue] | did not cause any cytotoxicity concern | had all turned white or nearly white except the Decell solution with the added Methylene Blue | notable exception

— patent US20220313873A1, “COLORED BIOLOGIC WOUND TREATMENT PROVIDING HEALING PROGRESS MONITORING” (KERECIS HF, priority 2021, published 2022)
